Test results: US6576647B2, “Pseudopolymorph of (—)-cis-2-(2-chlorophenyl)-5,7-dihydroxy-8[4R-(3S-hydroxy -1-methyl)piperidinyl]-4H-1-benzopyran-4-one” (Aventis Pharmaceuticals Inc., priority 2000, dated 2003)
Entries after “also recorded” stand apart in the source; their conditions may differ.

Experiments:
[1] = Variable humidity X-ray powder diffraction (crystallinity versus relative humidity); format: physicochemical; conditions: variable humidity XRPD; hydrochloride
From the text: X-ray Powder Diffraction (XRPD) patterns were taken on a Scintag XDS 2000 θ/θ diffractometer operating with copper radiation at 45 kV and 40 mA, using a Kevex Psi Peltier-cooled silicon detector. Source slits of 2 and 4 mm, and detector slits of 0.5 and 0.3 mm were used for data collection. Form II samples were gently milled using an agate mortar and pestle for approximately one minute, placed in a platinum sample pan, and leveled using a glass microscope slide. Samples taken during or post hygroscopicity testing were not milled due to the limited amount of sample available. In each case, powder diffraction patterns were scanned from 2° to 42° 2θ at 1°/minute. Calibration of the XDS 2000 was verified using Silicon powder.
For variable relative humidity experiments, the larger capacity DVS-2 Surface Measurement Systems Dynamic Vapor Sorption analyzer was used. Using a flow rate of 500 cc/min, Form II was held at desired RH settings and sampled periodically for XRPD analysis. Unmilled material was placed in the platinum sample pan and leveled using a glass microscope slide prior to analysis using the above conditions.

[2] = Hygroscopicity screening by Dynamic Water Vapor Sorption Analysis (DVS); format: physicochemical; conditions: for weight gain: 25° C. and 40° C.; for hygroscopicity assessment: conclusion from DVS weight gain, hydrochloride
Procedure: Hygroscopicity Screening—Comparison of Form I and Form II
Dynamic Vapor Sorption (DVS) Analysis Studies were Conducted on Form II Versus Form I.
Dynamic Water Vapor Sorption Analysis (DVS)
Form II was studied at 25° C. using a Surface Measurement Systems Dynamic Vapor Sorption DVS-1 analyzer. A sample in the range of about 14.8 mg was placed in a tared quartz sample holder at an initial ambient room humidity setting of about 48% Relative Humidity (RH). A total wet/dry nitrogen flow rate of 200 cc/min was used throughout the study. The following full cycle program was initiated: 30 min at the initial ambient RH, followed by settings of 0, 20, 40, 60, 80, 90, 95 and 98% RH, with exposure time at each humidity set point dependent upon dm/dt being less than 0.001% for 60 min. The maximum time allowed at any one humidity set point was 24 hours. For a full cycle, data collection took about 4 days to complete. After the full cycle the sample was maintained at the same RH as the initial ambient starting RH.
Form I was studied at 25° C. and 40° C. using the DVS-1 analyzer. Data was collected over two full cycles. Samples of 10.4 and 16.7 mg were placed into respective tared quartz sample holders at an initial ambient room humidity setting of about 46% RH and 33% RH, respectively. For this study, an additional 75% RH set point was used. For 2 full cycles, data collection took about 7 days at 25° C. and about 17 days at 40° C. to complete. After completion of each 2 cycle study, the samples were maintained at the same RH as the initial ambient starting RH.

Structure (SMILES)	crystallinity as the humidity is increased [1]	weight gain ([2]; DVS, above 90% RH)	weight gain ([2]; DVS, through about 75% RH)	hygroscopicity assessment [2]	additional weight gain ([2]; DVS, above 60% relative humidity, 25° C.)
CN1CC[C@H](c2c(O)cc(O)c3c(=O)cc(-c4ccccc4Cl)oc23)[C@H](O)C1.Cl (relative stereo) [Form I, (−)-cis-2-(2-chlorophenyl)-5,7-dihydroxy-8[4R-(3S-hydroxy-1-methyl)piperidinyl]-4H-1-benzopyran-4-one hydrochloride]	retains its crystallinity until extremely high relative humidity is reached	about 30%	1-2%	hygroscopic above 75% RH; also recorded: less hygroscopic than Form II	–
CN1CC[C@H](c2c(O)cc(O)c3c(=O)cc(-c4ccccc4Cl)oc23)[C@H](O)C1.Cl (relative stereo) [Form II, (−)-cis-2-(2-chlorophenyl)-5,7-dihydroxy-8[4R-(3S-hydroxy-1-methyl)piperidinyl]-4H-1-benzopyran-4-one hydrochloride, reference compound]	apparent decrease in crystallinity	–	–	hygroscopic	15-20%
